Here are results for one molecule from PMC9118212 (ACS Omega, 2022).

In assay [1] the test system is DNA-1 (5′-GTA AGA TGA TTC-3′ and 5′-GAA TCA TCT TAC-3′). It counts as binding. Particulars: pH 7.2.
The next assay deals with A-549 (lung cancer). The assay is described as follows: MTT cytotoxicity assay, A-549. In kind it is cell-based. The following applies: Homo sapiens, A549, 48 h, read-out: IC50 ± SD. Background: Tetrazolium assays rely on reduction of a dye to a coloured formazan, in cell work by metabolically active cells.
For the next assay, the system named is HeLa (cervical cancer). Briefly: MTT cytotoxicity assay, HeLa. In kind it is cell-based. The following applies: Homo sapiens, 48 h, read-out: IC50 ± SD.
In a further assay the test system is plasmid DNA pCR 2.1. The assay is described as follows: Electrophoretic mobility shift assay. In kind it is binding. Particulars: 100 ng plasmid, 0.1 nmol compound, 2 h at 37 °C, 1% agarose gel.
For assay [2], the system named is ARPE-19 (retinal epithelium), nontumor. The assay is described as follows: MTT cytotoxicity assay, ARPE-19. In kind it is cell-based. The following applies: Homo sapiens, ARPE-19, 48 h, read-out: IC50 ± SD.
For the next assay, the system named is LS-180 (colon cancer). The assay is described as follows: MTT cytotoxicity assay, LS-180. In kind it is cell-based. Particulars: Homo sapiens, LS180, 48 h, read-out: IC50 ± SD.

“And” between values parts separate entries of the source, which are not always exact repeats. Equal values may be shown once.

For orientation: IC50 means the concentration needed to halve the response being measured. For the molecule `COc1ccc2cc1Oc1ccc(cc1)C[C@H]1c3cc(c(OC)cc3CCN1C)Oc1c(OC)c(OC)cc3c1[C@H](C2)N(C)CC3` [tetrandrine, S,S-(+)-tetrandrine], the “Stern–Volmer constant (KSV)” value in assay [1] was 7.34 × 10^3. Further, the IC50 with A-549 (lung cancer) is 12.1 µg/mL and 19.4 µM; with HeLa (cervical cancer) it was 16.6 µg/mL and 26.7 µM; in assay [2], 8.45 µg/mL and 13.6 µM; in the assay with LS-180 (colon cancer), 6.43 µg/mL and 10.3 µM. Moreover, the “Effect on electrophoretic mobility of plasmid DNA” value with plasmid DNA pCR 2.1 was “reduce the mobility of the plasmid”.
